Results taken from US20040259925A1, “Pharmaceutical compositions and methds for the prevention or treatment of cardiovascular, cardiopulmonary, pulmonary or renal diseases” (Boehringer Ingelheim Pharma GmbH & Co. KG, priority 2003, published 2004).

Assays:
[1] = Dissolution of active substances from Tablet 3; assay type: physicochemical
Text: This combination of active substances and excipients was then compressed with a suitable tablet press (e.g. Korsch EK0 or Fette P1200) to form tablets.

[2] = target: T1, human PPARgamma-ligand binding domain (LBD) (Homo sapiens, UniProt P37231); experiment: AlphaScreen: recruiting of biotinylated LXXLL peptide of cofactor CBP by GST-PPARgamma-LBD; assay type: biochemical; details: for direct activation of the PPARgamma-LBD / recruiting of the LXXLL peptide: concentrations of up to 50 μM; for MW (AlphaScreen signal): 4 hours
T1 construct: codes for the amino acids 205-505 of the human PPARgamma2 transcription factor; made in house; host or cells: E. coli BL21(DE3), vector pGEX-4T-1
T1 sequence (P37231 205-505): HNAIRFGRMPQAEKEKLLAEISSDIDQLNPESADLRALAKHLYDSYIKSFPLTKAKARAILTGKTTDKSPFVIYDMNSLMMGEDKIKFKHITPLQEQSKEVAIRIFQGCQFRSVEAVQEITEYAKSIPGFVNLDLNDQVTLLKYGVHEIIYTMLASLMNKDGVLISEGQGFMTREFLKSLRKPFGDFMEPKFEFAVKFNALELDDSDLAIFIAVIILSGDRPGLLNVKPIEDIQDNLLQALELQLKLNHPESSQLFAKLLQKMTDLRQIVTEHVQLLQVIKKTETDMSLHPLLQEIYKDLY
Description: Protein containing the human PPARgamma-ligand binding domain (LBD) was prepared as a GST fusion protein in E. coli and purified by affinity chromatography. […] The fusion protein was expressed in the E. coli strain BL21(DE3) recommended for pGEX vectors after induction with 0.2 mM IPTG for 4 hours at 25° C. The bacteria were pelleted after the induction and frozen in batches in PBS, pH 7.4. After opening up in a French Press, the dissolved GST-PPARgamma-LBD-fusion protein was purified using a GSTrap column (Pharmacia). Elution was carried out by the addition of 20 mM reduced glutathione. The GST-PPARgamma-LBD-protein fractions were desalinated using a HiTrap desalting column (Pharmacia) and the protein concentration was determined using a standard assay.
The assay buffer consisted of 25mM Hepes pH7.4, 100 mM NaCl, 1 mM DTT, 0.1% Tween-20, 0.1% BSA. […] The final DMSO concentration in the assay was 1% (v/v). A 1% DMSO solution was used as the background control (NSB). The measurement was done using a Packard fusion measuring device.

[3] = target: T2, ligand binding domain of the human PPARgamma2 transcription factor fused to yeast GAL4 DNA binding domain (Homo sapiens, UniProt P37231); experiment: Luciferase activity in stably transformed PPARgamma reporter cell line (CHO-K1 clone 11); assay type: cell-based; details: for MW (luciferase activity): 24 hours
T2 construct: codes for amino acids 205-505 of the human PPARgamma2 transcription factor; expressed in transfected cells
T2 sequence (P37231 205-505): T1 sequence (P37231 205-505)
Text: The cells used are CHO cells which are the result of transformation with two gene constructs.
The resulting plasmid pFA-CMV/hPPARgamma2-LBD codes N-terminally of the PPARgamma-LBD in the same reading frame for a Gal4 DNA binding domain. In addition the plasmid codes for neomycin resistance.
The cell line CHO-K1 (ATCC CCL-61) was cotransfected with the plasmids pFA-CMV/hPPARgamma2-LBD and pFR-Luc (Stratagene). pFR-Luc codes for the luciferase gene under the control of a five-times repeated yeast Gal4 binding site. The transfection was carried out with lipofectamine2000 in accordance with the manufacturer's instructions.
After six days' cultivation the cells were passaged and kept in culture for another 10 days. The resulting neomycin-resistant colonies were picked out under the microscope and transferred into 96 well dishes and cultured.
The test substances were brought to 100 times the desired concentration with a suitable solvent, e.g. DMSO, and diluted 1:100 with the medium placed in the cell culture plate. The solvent used, e.g. DMSO, was used as the background control in the same concentration.
Luminescence was measured after a five minute wait using a Packard TopCount NXT. The luciferase activity was obtained by integrating the relative luciferase units (RLU) of the first ten seconds after the start of measurement.

[4] = target: T3, human PPARgamma-ligand binding domain (LBD) (Homo sapiens, UniProt P37231); experiment: SPA assay: displacement of 3H-labelled rosiglitazone from GST-PPARgamma-LBD; details: for MW (SPA signal, bound 3H-rosiglitazone): 30 nM 3H-rosiglitazone, NSB 217, Bmax 911; for displacement of the radioactive rosiglitazone from the binding pocket: very large excesses of test substance
T3 sequence (P37231 205-505): T1 sequence (P37231 205-505)
T3 sequence (P19793 220-461 partner): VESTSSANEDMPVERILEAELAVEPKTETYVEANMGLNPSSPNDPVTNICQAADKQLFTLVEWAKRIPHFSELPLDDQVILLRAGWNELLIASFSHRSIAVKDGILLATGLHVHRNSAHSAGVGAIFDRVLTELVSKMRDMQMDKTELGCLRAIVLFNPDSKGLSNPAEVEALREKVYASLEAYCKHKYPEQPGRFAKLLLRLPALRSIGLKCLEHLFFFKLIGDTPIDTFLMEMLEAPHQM
Description: Protein containing the human PPARgamma-ligand binding domain (LBD) was prepared as a GST fusion protein in E. coli and purified by affinity chromatography. To do this, a DNA section which codes for the amino acids 205-505 of the human PPARgamma2 transcription factor (cf. Genbank entry U79012) was subcloned via the additionally inserted restriction cutting sites BamH I and Xho I into the expression vector pGEX-4T-1 (Amersham) and the sequence of the section was monitored. […] The bacteria were pelleted after the induction and frozen in batches in PBS, pH 7.4. After opening up in a French Press, the dissolved GST-PPARgamma-LBD-fusion protein was purified using a GSTrap column (Pharmacia). Elution was carried out by the addition of 20 mM reduced glutathione. The GST-PPARgamma-LBD-protein fractions were desalinated using a HiTrap desalting column (Pharmacia) and the protein concentration was determined using a standard assay. Protein containing the human RXRalpha ligand binding domain (LBD) was prepared as a His tag fusion protein in E. coli and purified by affinity chromatography. To do this a DNA section which codes for the amino acids 220-461 of the human RXRalpha transcription factor (cf. Genbank entry NM_002957, nt 729-1457) was subcloned via the additionally introduced restriction cutting sites BamH I and Not I into the expression vector pET28c (Novagen) and the sequence of the section was monitored. […] The bacteria were pelleted after the expression and frozen in batches in PBS, pH 7.4. After opening up in a French Press, the dissolved His-RXRalpha-LBD-fusion protein is purified using a HiTrap chelating column (Pharmacia). Elution was carried out using a 500 mM imidazole step. The His-RXRalpha-LBD protein fractions were desalinated using a HiTrap desalting column (Pharmacia) and the protein concentration was determined using a standard assay. A description of the SPA assay format can be found in Mukherjee R et al., J Steroid Biochem Mol Biol (2002) 81:217-225. The assay buffer consisted of 20 mM Tris pH 7.5, 25 mM KCl, 10 mM DTT, 0.2% Triton X-100).

Structure (SMILES) | direct activation of the PPARgamma-LBD / recruiting of the LXXLL peptide [2] | activation of the PPARgamma pathway in the PPARgamma reporter cell line [3] | MW (luciferase activity) ([3]; test substance 1.00E−04 M) | MW (luciferase activity) ([3]; test substance 1.00E−05 M) | MW (luciferase activity) ([3]; test substance 1.00E−06 M) | MW (luciferase activity) ([3]; test substance 3.00E−05 M) | MW (luciferase activity) ([3]; test substance 3.00E−06 M) | MW (luciferase activity) ([3]; test substance 3.00E−07 M) | MW (SPA signal, bound 3H-rosiglitazone) ([4]; test substance 1.00E−04 M) | MW (SPA signal, bound 3H-rosiglitazone) ([4]; test substance 1.00E−05 M) | MW (SPA signal, bound 3H-rosiglitazone) ([4]; test substance 1.00E−06 M) | MW (SPA signal, bound 3H-rosiglitazone) ([4]; test substance 1.00E−07 M) | MW (SPA signal, bound 3H-rosiglitazone) ([4]; test substance 3.00E−05 M) | MW (SPA signal, bound 3H-rosiglitazone) ([4]; test substance 3.00E−06 M) | MW (SPA signal, bound 3H-rosiglitazone) ([4]; test substance 3.00E−07 M) | displacement of the radioactive rosiglitazone from the binding pocket [4] | also measured
NS(=O)(=O)c1cc2c(cc1Cl)NCNS2(=O)=O [hydrochlorothiazide] | – | – | – | – | – | – | – | – | – | – | – | – | – | – | – | – | dissolved after 30 minutes ([1]; Tablet 3, first batch, 900 ml 0.1 M HCl, 100 rpm): 69±6.3%; dissolved after 30 minutes ([1]; Tablet 3, second batch, 900 ml 0.1 M HCl, 100 rpm): 72±2.1%; dissolved after 30 minutes ([1]; Tablet 3, third batch, 900 ml 0.1 M HCl, 100 rpm): 78±1.8%
CCCCC1=NC2(CCCC2)C(=O)N1Cc1ccc(-c2ccccc2-c2nnn[nH]2)cc1 [irbesartan] | did not result in any direct activation of the PPARgamma-LBD | only at higher test concentrations and to a lesser extent | 29600 RLU | 3292 RLU | 657 RLU | 22133 RLU | 1028 RLU | 491 RLU | 510 | 723 | 815 | 913 | 648 | 779 | 810 | no concentration-dependent displacement | –
CCCc1nc2c(C)cc(-c3nc4ccccc4n3C)cc2n1Cc1ccc(-c2ccccc2C(=O)[O-])cc1.[Na+] [telmisartan sodium salt] | – | – | – | – | – | – | – | – | – | – | – | – | – | – | – | – | dissolved after 30 minutes ([1]; Tablet 3, first batch, 900 ml 0.1 M phosphate buffer pH 7.5, 75 rpm): 92±1.5%; dissolved after 30 minutes ([1]; Tablet 3, second batch, 900 ml 0.1 M phosphate buffer pH 7.5, 75 rpm): 96±1.8%; dissolved after 30 minutes ([1]; Tablet 3, third batch, 900 ml 0.1 M phosphate buffer pH 7.5, 75 rpm): 100±1.0%
CCCc1nc2c(C)cc(-c3nc4ccccc4n3C)cc2n1Cc1ccc(-c2ccccc2C(=O)O)cc1 [telmisartan, 4′-[2-n-propyl-4-methyl-6-(1-methylbenzimidazol-2-yl)-benzimidazol-1-ylmethyl]-biphenyl-2-carboxylic acid] | did not result in any direct activation of the PPARgamma-LBD | particularly potent activation | – | 61397 RLU | 2859 RLU | 58790 RLU | 24498 RLU | 760 RLU | 545 | 703 | 818 | 837 | 691 | 818 | 802 | no concentration-dependent displacement | MW (AlphaScreen signal) ([2]; test substance 1.00E−05 M): 847; MW (AlphaScreen signal) ([2]; test substance 1.00E−06 M): 677; MW (AlphaScreen signal) ([2]; test substance 1.00E−07 M): 606; MW (AlphaScreen signal) ([2]; test substance 3.00E−06 M): 720; MW (AlphaScreen signal) ([2]; test substance 3.00E−07 M): 644; MW (AlphaScreen signal) ([2]; test substance 3.00E−08 M): 642; MW (AlphaScreen signal) ([2]; test substance 5.00E−05 M): 1111
CCCCc1nc(Cl)c(CO)n1Cc1ccc(-c2ccccc2-c2nn[nH]n2)cc1 [losartan] | did not result in any direct activation of the PPARgamma-LBD | only at higher test concentrations and to a lesser extent | 11322 RLU | 709 RLU | 589 RLU | 3271 RLU | 672 RLU | 874 RLU | 611 | 787 | 901 | 915 | 784 | 814 | 835 | no concentration-dependent displacement | –
